Values of other authors in patent US20120035270A1, “PAEDIATRIC SOLUTIONS COMPRISING A BETA-BLOCKER” (priority 2009, published 2012).

Legend:
[1] = tested on: B. Subtilis, S. Aureus and E. Coli; conditions: Takahashi et al. 1983
S. Aureus = conditions: growth of S. Aureus
E. Coli = conditions: growth of E. Coli
B. Subtilis = conditions: growth of B. Subtilis
[2] = tested on: Infantile capillary hemangiomas (IH); conditions: severe hemangiomas of infancy, Léauté-Labrèze et al. 2008

Question: For `CC(C)(C)NC[C@H](O)COc1nsnc1N1CCOCC1` [Timolol], which antimicrobial effects [1] is on record?
Answer: do not have these antimicrobial effects

Question: For `CC(=O)c1cc2cccc(OCC(O)CNC(C)C)c2o1` (stereo not drawn) [befunolol], which antimicrobial effects [1] is on record?
Answer: do not have these antimicrobial effects

Question: Which minimum inhibitory concentration (S. Aureus) does the source give for `Cc1ccc(Cl)c(OCC(O)CNC(C)(C)C)c1` (stereo not drawn) [bupranolol] here?
Answer: 0.05%

Question: And the minimum inhibitory concentration (E. Coli)?
Answer: 0.05%

Question: And the minimum inhibitory concentration (B. Subtilis)?
Answer: 0.1%

Question: Which “control and treatment of the growth of IH” value [2] does the source give for `CC(C)NCC(O)COc1cccc2ccccc12` (stereo not drawn) [propranolol, 1-(isopropylamino)-3-(naphthalen-1-yloxy)propan-2-ol] here?
Answer: could efficiently be used to control and even to treat the growth of IH
